The source of these data is patent EP4038084B1, “LIPOPEPTIDES, PHARMACEUTICAL COMPOSITION, COSMETIC COMPOSITION, AND LIPOPEPTIDES FOR USE AS A DRUG” (priority 2019, dated 2021).

In one data set the test system is Horse red blood cells. Type of data set: cell-based. As to the method:
(§1) Defibrinated sheep or horse blood was washed three times in PBS buffer (137 mM NaCl, 2.7 mM KCl, 8 mM Na2HPO4, 2 mM KH2PO4, pH 7.4) and diluted to obtain 2% (v/v) preparation of red blood cells (RBC). […] The experiment was performed by adding 190 µL of 2% RBC preparation to 10 µL of each of the prepared lipopeptide dilutions in the wells of a 96-well titer plate. As a positive control, Triton X-100 (2% final concentration) was used, instead of test compound preparations, and PBS buffer was used as a negative control. The samples were then incubated for 30 min at 30°C with shaking. After this time, the plate was centrifuged (1200 rpm) and 150 µL of the supernatant was transferred per well to another titration plate and the absorbance at 415 nm was measured using TECAN Sunrise plate reader. Based on the obtained results, the concentration of lipopeptides was determined at which up to 50% of hemolysis occurs in comparison with the positive control (HC50). Data were obtained from three independent experiments. The measurement results are shown in Table 3 and in the form of graphs in Figs. 7 and 8.

In the next data set the test system is Sheep red blood cells. In kind it is cell-based. As to the method:
as §1

In data set [1] the test system is Klebsiella pneumoniae PCM 1. The experiment in a line: Lipopeptide effect on the bacterial growth dynamics. In kind it is cell-based. Particulars: OD 600 nm every 60 min for 6 h after 2 h pre-incubation. As to the method:
(§2) Typhimurium TT622, and Yersinia enterocolitica PCM 2081. All strains were cultured in LB (lysogenic broth) medium.
(§3) The effect of different concentrations of the test compounds on the bacterial growth was tested on 3 Gram-negative bacterial strains: Klebsiella pneumoniae PCM 1, Pseudomonas aeruginosa PAO1 PCM 499, and Yersinia enterocolitica PCM 2081 and one Gram-positive strain: Staphylococcus aureus ATCC 29213. The experiment was carried out in a similar way to the MIC determination, but in this case the diluted overnight cultures were pre-incubated for 2 h before adding diluted lipopeptide preparations. The bacterial growth was then monitored by measuring the optical density of the culture at 600 nm every 60 min for 6 h. Data were obtained from three independent experiments. The measurement results are shown as graphs in Figs. 1-3.

Data set [2] relates to Yersinia enterocolitica PCM 2081. The description is as above. Type of data set: cell-based. Particulars: OD 600 nm every 60 min for 6 h after 2 h pre-incubation. The method, then:
as §2, §3

Data set [3] concerns Pseudomonas aeruginosa PAO1 PCM 499. Described as above. Type of data set: cell-based. Particulars: OD 600 nm every 60 min for 6 h after 2 h pre-incubation. As to the method:
as §2, §3

Data set [4] concerns Staphylococcus epidermidis ATCC 12228. Particulars: LB medium, 24 h at 30°C, OD 600 nm not greater than 0.05.
The test system of data set [5] is Salmonella sv. Typhimurium TT622. The experiment in a line: Determination of the minimal inhibitory concentration (MIC). In kind it is cell-based. Particulars: LB medium, 24 h at 30°C, OD 600 nm not greater than 0.05. As to the method: as §2
(§4) The test compounds were dissolved in water. […] Data were obtained from three independent experiments.

In data set [6] the test system is Klebsiella pneumoniae PCM 1. In kind it is cell-based. Particulars: LB medium, 24 h at 30°C, OD 600 nm not greater than 0.05. The method, then:
as §2, §4

Data set [7] has as its system Enterococcus faecalis ATCC 14506. Type of data set: cell-based. Particulars: LB medium, 24 h at 30°C, OD 600 nm not greater than 0.05. The method, then: as §2, §4
Data set [8] concerns Escherichia coli ST2-8624 O157:H7. Type of data set: cell-based. Particulars: LB medium, 24 h at 30°C, OD 600 nm not greater than 0.05. The method, then: as §2, §4
Data set [9] has as its system Pseudomonas aeruginosa PAO1 PCM 499. Type of data set: cell-based. Conditions: LB medium, 24 h at 30°C, OD 600 nm not greater than 0.05. The method, then:
as §2, §4

For data set [10], the system named is Yersinia enterocolitica PCM 2081. Particulars: LB medium, 24 h at 30°C, OD 600 nm not greater than 0.05. An excerpt:
All bacterial strains were obtained from the Polish Collection of Microorganisms (PCM) or the American Type Culture Collection (ATCC). Gram-positive bacteria strains: Staphylococcus aureus ATCC 29213, Staphylococcus epidermidis ATCC 12228, and Enterococcus faecalis ATCC 14506. Gram-negative bacteria strains: Escherichia coli ST2-8624 O157:H7, Pseudomonas aeruginosa PAO1 PCM 499, Klebsiella pneumoniae PCM 1, Salmonella sv. Typhimurium TT622, and Yersinia enterocolitica PCM 2081. All strains were cultured in LB (lysogenic broth) medium.
10 mL of LB medium was inoculated with material from a single colony and cultured at 30°C overnight with shaking. Thereafter, the optical density of the overnight cultures (at 600 nm) was adjusted to 0.05 by dilution in a fresh portion of LB medium. The test compounds were dissolved in water. Serial dilutions of compounds were prepared in LB medium ranging from 5 to 50 µg/mL (final concentrations). The experiment was performed by adding 100 µL of each of the prepared dilutions to 100 µL of the diluted overnight bacterial culture in the wells of a 96-well titration plate. […] Optical density measurements were performed using TECAN Sunrise plate reader. Data were obtained from three independent experiments.

In data set [11] the test system is Staphylococcus aureus ATCC 29213. Particulars: LB medium, 24 h at 30°C, OD 600 nm not greater than 0.05.

In brackets after ≈: the same amount, converted by molar mass. Entries after “also recorded” stand apart in the source; their conditions may differ. Where a SMILES comes first, the peptide text is derived from it. [ ]: non-standard residue; d: D form. The star is where a group is joined. Palmitoyl = CCCCCCCCCCCCCCCC(=O)*; Myristoyl = CCCCCCCCCCCCCC(=O)*; Lauroyl = CCCCCCCCCCCC(=O)*; Dab = NCC[C@H](N)C(=O)O

As to `CCCCCCCCCCCC(=O)N[C@H](Cc1ccccc1)C(=O)N[C@@H](CCN)C(=O)N[C@@H](CCN)C(=O)N[C@@H](CC(C)C)C(N)=O` [C12-fXXL, CH3(CH2)10C(O)-D-Phe-Dab-Dab-Leu-NH2] (Lauroyl-[dF][Dab][Dab]L-NH2), the HC50 in the data set on Horse red blood cells and in the data set on Sheep red blood cells was 30 µg/mL < HC50< 40 µg/mL each time. The “effect on the bacterial growth dynamics” value in data set [1], in data set [2] and in data set [3] was “slowed down the bacterial growth dynamics at much lower concentrations than that of the C16-fXXL lipopeptide” each time. The MIC (as a rule, the lowest concentration found to suppress growth) in data set [4] is recorded as 5 µg/mL (≈ 7.58 µM); in [5] it was “n.d. (n.d. = not determined, i.e., the MIC value was greater than 50 µg/mL)”; in data set [6], 20 µg/mL (≈ 30.3 µM); in [7], 30 µg/mL (≈ 45.5 µM); in data set [8] it was 50 µg/mL (≈ 75.8 µM); in data set [9], 20 µg/mL (≈ 30.3 µM). Further, the results for the MIC in data set [10] and in [11] were 20 µg/mL (≈ 30.3 µM) and 5 µg/mL (≈ 7.58 µM), respectively.
With `CCCCCCCCCCCCCC(=O)N[C@H](Cc1ccccc1)C(=O)N[C@@H](CCN)C(=O)N[C@@H](CCN)C(=O)N[C@@H](CC(C)C)C(N)=O` [C14-fXXL, CH3(CH2)12C(O)-D-Phe-Dab-Dab-Leu-NH2] (Myristoyl-[dF][Dab][Dab]L-NH2), the HC50 in the data set on Horse red blood cells and in the data set on Sheep red blood cells was 30 µg/mL < HC50< 40 µg/mL throughout. The “effect on the bacterial growth dynamics” value in [1] is “slowed down the bacterial growth dynamics at much lower concentrations than that of the C16-fXXL lipopeptide”; in data set [2], “slowed down the bacterial growth dynamics at much lower concentrations than that of the C16-fXXL lipopeptide”; in [3], “equally strong effect of slowing down the Gram-negative bacterial growth dynamics; also recorded: slowed down the bacterial growth dynamics at much lower concentrations than that of the C16-fXXL lipopeptide”. For the same molecule, the MIC in [4] is listed as 5 µg/mL (≈ 7.27 µM); in [5], “n.d. (n.d. = not determined, i.e., the MIC value was greater than 50 µg/mL)”; in data set [6], 20 µg/mL (≈ 29.1 µM); in [7], 30 µg/mL (≈ 43.6 µM); in data set [8], “n.d. (n.d. = not determined, i.e., the MIC value was greater than 50 µg/mL)”; in data set [9] it was 20 µg/mL (≈ 29.1 µM). Further, the MIC in data set [10] is 10 µg/mL (≈ 14.5 µM); in data set [11], 5 µg/mL (≈ 7.27 µM).
As for `CCCCCCCCCCCCCCCC(=O)N[C@H](Cc1ccccc1)C(=O)N[C@@H](CCN)C(=O)N[C@@H](CCN)C(=O)N[C@@H](CC(C)C)C(N)=O` [C16-fXXL, CH3(CH2)14C(O)-D-Phe-Dab-Dab-Leu-NH2, reference compound] (Palmitoyl-[dF][Dab][Dab]L-NH2), the HC50 in the data set with Horse red blood cells and with Sheep red blood cells was 30 µg/mL < HC50< 40 µg/mL in each case. Further, the MIC is given as 5 µg/mL (≈ 6.98 µM) in [4]; “n.d. (n.d. = not determined, i.e., the MIC value was greater than 50 µg/mL)” in data set [5]; “n.d. (n.d. = not determined, i.e., the MIC value was greater than 50 µg/mL)” in [6]; “n.d. (n.d. = not determined, i.e., the MIC value was greater than 50 µg/mL)” in data set [7]; “no activity” in data set [8]; “n.d. (n.d. = not determined, i.e., the MIC value was greater than 50 µg/mL)” in [9]. The MIC in data set [10] is 30 µg/mL (≈ 41.9 µM); in [11], 5 µg/mL (≈ 6.98 µM).
